Patent publication US20090175788A1, “RADIOLABELLED LIGAND FOR THE GLYCINE 1 TRANSPORTER” (priority 2006, published 2009)

Legend:
[1] = target: T1, glycine transporter subtype 1 (GlyT1) (Sus scrofa, UniProt A0A287AJD7); experiment: PET imaging with pharmacological challenges (blocking of Compound A uptake by a selective GlyT1 inhibitor); assay type: in vivo; details: pig
T1 construct: from tissue; host or cells: brain of living anaesthetised pig (Yorkshire/Danish Landrace), in vivo PET
Experimental: (§1) The animals (pig, Yorkshire/Danish Landrace (˜40 Kg; n=2) were housed singly in thermostatically controlled (20° C.) and naturally illuminated stalls. They were scanned under terminal anaesthesia (ketamine induced isoflurane anaesthesia) on different days. The left femoral artery and vein of each animal were surgically cannulated using catheters (Avanti® size 4F-7F). Blood samples were collected from the femoral artery and the radiolabelled and non-labelled agents were injected into the femoral vein. Animals were placed supine in a Siemens ECAT EXACT HR tomograph, with the head immobilised in a custom-made holding device. During the study, blood pH, pCO2 and pO2 levels were monitored and maintained within the normal physiological range. In addition, BP and heart rate were recorded throughout the study. Compound A was administered intravenously into the femoral vein as a 1 minute bolus injection. PET scanning and arterial blood sampling was commenced upon start of the radioligand administration.
In a first study, two sequential high specific activity iv radioligand Compound A administrations were performed in same animal on the same day.
(§2) The PET data were analysed by using tracer kinetic modeling techniques to derive estimates of the tissue delivery (K1) and partition coefficient (PET volume of distribution—Vd). An input function representing the concentration of unchanged radiotracer in plasma was generated using discrete measures of the total plasma radioactivity and HPLC measures determining the parent radiotracer fraction. A generic tracer kinetic model (DEPICT) which estimates the tissues impulse response function was fitted to each of the individual tissue time activity curves to derive the appropriate parameters for each region (K1,Vd) (R. N. Gunn, S. R. Gunn, V. J. Cunningham. Cereb Blood Flow Metab. 2001, 21(6), 635-52; R. N. Gunn, S. R. Gunn, F. E. Turkheimer, J. A. Aston, V. J. Cunningham. J Cereb Blood Flow Metab. 2002, 22(12), 1425-39).

[2] = target: T1, glycine transporter subtype 1 (GlyT1); experiment: PET imaging with Compound A in pig brain; assay type: in vivo
Experimental: as §1, §2

T1 sequence (A0A287AJD7 1-654): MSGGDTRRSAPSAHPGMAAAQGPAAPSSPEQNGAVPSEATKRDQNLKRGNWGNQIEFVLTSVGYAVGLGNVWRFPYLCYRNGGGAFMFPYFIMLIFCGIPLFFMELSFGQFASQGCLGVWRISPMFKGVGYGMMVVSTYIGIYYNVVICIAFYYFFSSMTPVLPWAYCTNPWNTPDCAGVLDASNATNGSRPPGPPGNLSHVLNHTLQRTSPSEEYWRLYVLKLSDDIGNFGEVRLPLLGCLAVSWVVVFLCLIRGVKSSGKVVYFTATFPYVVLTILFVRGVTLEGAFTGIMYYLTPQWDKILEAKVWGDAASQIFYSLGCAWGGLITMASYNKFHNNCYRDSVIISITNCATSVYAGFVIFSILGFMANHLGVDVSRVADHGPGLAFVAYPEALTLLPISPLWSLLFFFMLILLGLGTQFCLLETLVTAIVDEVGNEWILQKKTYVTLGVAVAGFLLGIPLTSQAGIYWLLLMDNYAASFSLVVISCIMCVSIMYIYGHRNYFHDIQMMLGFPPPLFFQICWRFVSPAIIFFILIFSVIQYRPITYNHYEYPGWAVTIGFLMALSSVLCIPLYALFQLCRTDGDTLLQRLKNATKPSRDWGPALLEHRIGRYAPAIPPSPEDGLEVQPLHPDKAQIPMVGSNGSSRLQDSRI

GlyT1 saturation (occupancy) ([1]; high dose 0.5 mg/kg iv) | ED50 ([1]; increasing iv doses, PET, read-out: intravenous ED50 (change in Compound A derived Vd)) [mg/kg] | effect of pretreatment on K1 of Compound A ([1]; iv pretreatment) | time of peak brain uptake of radioactivity after administration ([2]; pig brain, iv, PET) [min] | brain entry of radiotracer ([2]; pig, iv 1 minute bolus, PET 0 to 90 min) | Extraction fraction (K1) ([2]; pig, stable across brain regions, tracer kinetic model (DEPICT)) [min⁻¹] | Compound | effect on Compound A uptake in the brain ([1]; escalating iv doses 0.001, 0.01 and 0.1 mg/kg, 5 min prior to Compound A) | effect on specific uptake of radiotracer Compound A ([1]; high iv dose 0.5 mg/kg, 5 minutes prior to Compound A) | regional brain distribution ([2]; pig brain, PET, compared with the known distribution of GlyT1)
near complete GlyT1 saturation | 0.0225 | not altered | – | – | – | CN1CCCC[C@H]1[C@@H](NC(=O)c1cccc(C(F)(F)F)c1Cl)c1ccccc1 [2-chloro-N—[(S)-[(2S)-1-methyl-2-piperidinyl](phenyl)methyl]-3-(trifluoromethyl)benzamide] | dose-dependent decrease of compound A uptake in the brain | the specific uptake of radiotracer was blocked | –
– | – | – | 25 | readily enters the pig brain | 0.06 | Cc1cccc(C)c1C(=O)NC(c1ccccc1)C1(N(C)[11CH3])CCCC1 (stereo not drawn) [Compound A, [^11C—N-methyl]-N-[[1-(dimethylamino)cyclopentyl](phenyl)methyl]-2,6-dimethylbenzamide] | – | – | higher accumulation in mid-brain, thalamus and cerebellum compared to cortical regions
